The results in this text go back to patent US6858774B2, “MDR-like ABC transporter gene from plants” (Wisconsin Alumni Research Foundation, priority 1998, dated 2005).

For assay [1], the system named is wild type Arabidopsis seedlings. The assay can be described thus: Treatment of wild type seedlings, morphological phenotype. The settings on record: 2,4-D or high concentrations of auxin. Format: in vivo, Arabidopsis thaliana. From the text:
Expression of the plPAC gene of the present invention is inducible by auxin as described below in Example 4. Treatment of wild type Arabidopsis seedlings with 2,4-D or high concentrations of auxin result in plants with the same phenotype as that of ATPAC mutant plants. […] Under this model, tissues that express this pump would accumulate auxin as a result of the mutation and the altered auxin balance could be responsible for the altered growth patters typifying the ATPAC phenotype. Further support of this model is the similarity of auxin to indolylic substrates pumped by human MDR1, and the finding that ATPAC expression is increased by auxin.

A further assay concerns the target T1, ATPAC (Arabidopsis thaliana, UniProt Q9LJX0, DUP906-907/P1064L).
T1 construct: The 3.76 kb cDNA clone encodes a polypeptide 1,254 amino acids in length; expressed in transfected cells; host or cells: yeast (wild type and a strain lacking seven ABC transporters)
The assay can be described thus: NPA binding to yeast expressing ATPAC. From the text:
Expression in Yeast and Xenopus Oocytes. ATPAC cDNA was expressed in wild type yeast as well as in yeasts lacking seven ABC transporters (as described by Decottignies et al., (1998) J. Biol. Chem. 273:12612-22)in order to create a heterologous system for studying function of the transporter. The yeasts were exposed to toxic compounds that are known substrates for human MDR1. […] Further, there was no evidence of a drug-pumping role for ATPAC.
ATPAC Binds the Auxin Transport Inhibitor naphthylphthalamic acid (NPA). Yeast expressing ATPAC was assayed for NPA binding. […] Bound NPA was not displaced by benzoic acid, a related hydrophobic organic acid. Proteins that bind NPA and influence auxin transport are considered important regulators of hormone action and therefore, of plant development.

T1 sequence (Q9LJX0 other isoform, or with tags, fused parts or gaps DUP906-907/P1064L): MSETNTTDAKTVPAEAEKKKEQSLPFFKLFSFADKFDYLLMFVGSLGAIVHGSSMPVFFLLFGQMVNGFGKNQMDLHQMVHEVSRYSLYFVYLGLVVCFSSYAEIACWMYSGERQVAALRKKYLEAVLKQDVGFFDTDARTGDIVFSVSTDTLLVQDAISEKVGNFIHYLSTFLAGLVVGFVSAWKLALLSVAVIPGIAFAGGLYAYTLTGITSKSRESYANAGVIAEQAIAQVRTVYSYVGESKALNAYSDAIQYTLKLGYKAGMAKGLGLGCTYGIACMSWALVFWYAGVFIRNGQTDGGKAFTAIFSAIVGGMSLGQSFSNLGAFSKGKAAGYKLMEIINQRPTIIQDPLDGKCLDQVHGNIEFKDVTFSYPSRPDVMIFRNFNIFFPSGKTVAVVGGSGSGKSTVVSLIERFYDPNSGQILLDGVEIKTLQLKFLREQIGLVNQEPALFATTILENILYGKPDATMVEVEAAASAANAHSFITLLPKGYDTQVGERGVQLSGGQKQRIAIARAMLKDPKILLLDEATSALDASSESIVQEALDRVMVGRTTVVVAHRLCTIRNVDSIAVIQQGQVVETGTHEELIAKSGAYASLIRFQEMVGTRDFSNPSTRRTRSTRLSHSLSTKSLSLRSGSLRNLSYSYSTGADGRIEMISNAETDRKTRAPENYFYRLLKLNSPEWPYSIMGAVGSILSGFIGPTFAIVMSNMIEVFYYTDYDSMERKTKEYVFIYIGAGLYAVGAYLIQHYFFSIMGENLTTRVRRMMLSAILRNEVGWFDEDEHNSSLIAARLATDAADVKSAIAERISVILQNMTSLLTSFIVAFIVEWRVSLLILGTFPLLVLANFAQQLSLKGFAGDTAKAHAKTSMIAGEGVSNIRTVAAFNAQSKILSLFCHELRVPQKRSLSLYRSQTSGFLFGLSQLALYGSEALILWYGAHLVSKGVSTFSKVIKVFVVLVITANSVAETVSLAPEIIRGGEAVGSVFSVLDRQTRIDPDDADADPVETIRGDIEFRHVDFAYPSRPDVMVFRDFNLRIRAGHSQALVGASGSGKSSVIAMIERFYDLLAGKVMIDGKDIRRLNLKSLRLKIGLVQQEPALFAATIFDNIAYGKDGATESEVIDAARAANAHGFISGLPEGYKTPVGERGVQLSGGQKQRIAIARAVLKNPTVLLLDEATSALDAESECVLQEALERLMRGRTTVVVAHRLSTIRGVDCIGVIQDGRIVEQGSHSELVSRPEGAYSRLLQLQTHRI

As to `O=C(O)COc1ccc(Cl)cc1Cl` [2,4-D], in assay [1], the “Phenotype of treated wild type seedlings” value is “strongly curved organs”. For `O=C(O)c1ccccc1` [benzoic acid], the “Displacement of bound NPA” value on ATPAC (ATPAC-expressing yeast, bound NPA) is recorded as “not displaced”. Consider `O=C(O)Cc1c[nH]c2ccccc12` [auxin], for which the “Phenotype of treated wild type seedlings” value in assay [1] is recorded as “strongly curved organs”.

In the case of `O=C(O)c1ccccc1C(=O)Nc1cccc2ccccc12` [NPA, naphthylphthalamic acid], the “NPA binding to ATPAC-expressing yeast” value on ATPAC (ATPAC-expressing yeast) was “bound tightly and specifically”. In addition, at ATPAC (control yeast), the “NPA binding to control yeast” value was “not to control yeast”.
